{"source": "paper PMC6934184", "about": "“Selective DNA-PKcs inhibition extends the therapeutic index of localized radiotherapy and chemotherapy” (The Journal of Clinical Investigation, 2019)", "target": "T1, PDK1 (Homo sapiens, UniProt O15530)", "T1 construct": "purchased Thermo Fisher Scientific (Life Technologies) SelectScreen", "T1 sequence (O15530 whole entry)": "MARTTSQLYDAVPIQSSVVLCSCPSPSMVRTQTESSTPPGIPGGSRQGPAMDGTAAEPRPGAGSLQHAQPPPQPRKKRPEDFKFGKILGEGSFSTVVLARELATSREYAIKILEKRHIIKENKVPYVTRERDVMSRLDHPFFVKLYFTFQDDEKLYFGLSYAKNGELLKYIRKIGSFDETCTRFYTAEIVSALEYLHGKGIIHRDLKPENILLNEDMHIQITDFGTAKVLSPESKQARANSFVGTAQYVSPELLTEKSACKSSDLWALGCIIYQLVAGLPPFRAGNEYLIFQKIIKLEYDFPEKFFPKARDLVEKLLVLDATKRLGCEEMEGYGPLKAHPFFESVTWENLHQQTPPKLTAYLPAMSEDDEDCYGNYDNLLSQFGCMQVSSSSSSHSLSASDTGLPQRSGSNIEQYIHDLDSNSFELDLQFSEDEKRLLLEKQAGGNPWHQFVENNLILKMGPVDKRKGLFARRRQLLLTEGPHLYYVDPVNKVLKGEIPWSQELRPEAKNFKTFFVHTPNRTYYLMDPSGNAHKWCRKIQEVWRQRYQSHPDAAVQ", "experiment": "SelectScreen Z'LYTE", "type": "biochemical", "procedure,_shortened": "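SelectScreen broad panel; activity (Z'LYTE, Adapta) plus binding formats. ATP: Km app for CSF1R Z'LYTE; 10 for CAMK1 Adapta. Readout = % per kinase.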", "data": [{"smiles": "CN(C(=O)CN1CCOCC1)c1ccc2sc3c(-c4cccc5c(=O)cc(N6CC7CCC(C6)O7)oc45)cccc3c2c1", "note": "[NU5455]", "values": [{"measurement": "inhibition at 1 µM", "value": -7.3, "unit": "%"}]}]}
